Results as given in ChEMBL document CHEMBL1139115, “Thyroid receptor ligands. Part 7: Indirect antagonists of the thyroid hormone receptor with improved affinity” (Bioorg Med Chem Lett, 2007).

Legend:
[1] = molecular target: T1, Thyroid hormone receptor alpha (Homo sapiens, UniProt P10827); assay: Binding affinity at human TRalpha1
T1 sequence (P10827 whole entry): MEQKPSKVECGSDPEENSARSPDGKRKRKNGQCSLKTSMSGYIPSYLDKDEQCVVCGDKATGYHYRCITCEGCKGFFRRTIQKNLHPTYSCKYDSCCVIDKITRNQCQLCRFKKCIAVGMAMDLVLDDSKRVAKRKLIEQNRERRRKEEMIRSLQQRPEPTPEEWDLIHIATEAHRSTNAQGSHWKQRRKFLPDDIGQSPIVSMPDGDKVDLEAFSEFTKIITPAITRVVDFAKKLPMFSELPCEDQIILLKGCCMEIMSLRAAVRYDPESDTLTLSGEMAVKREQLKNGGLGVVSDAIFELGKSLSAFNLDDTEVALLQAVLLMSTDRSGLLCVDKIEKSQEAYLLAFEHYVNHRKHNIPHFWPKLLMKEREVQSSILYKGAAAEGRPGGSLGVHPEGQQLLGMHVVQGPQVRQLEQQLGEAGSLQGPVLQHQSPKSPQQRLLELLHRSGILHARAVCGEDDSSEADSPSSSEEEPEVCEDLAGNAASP

[2] = molecular target: T2, Thyroid hormone receptor beta (Homo sapiens, UniProt P10828); assay: Binding affinity at human TRbeta1
T2 sequence (P10828 whole entry): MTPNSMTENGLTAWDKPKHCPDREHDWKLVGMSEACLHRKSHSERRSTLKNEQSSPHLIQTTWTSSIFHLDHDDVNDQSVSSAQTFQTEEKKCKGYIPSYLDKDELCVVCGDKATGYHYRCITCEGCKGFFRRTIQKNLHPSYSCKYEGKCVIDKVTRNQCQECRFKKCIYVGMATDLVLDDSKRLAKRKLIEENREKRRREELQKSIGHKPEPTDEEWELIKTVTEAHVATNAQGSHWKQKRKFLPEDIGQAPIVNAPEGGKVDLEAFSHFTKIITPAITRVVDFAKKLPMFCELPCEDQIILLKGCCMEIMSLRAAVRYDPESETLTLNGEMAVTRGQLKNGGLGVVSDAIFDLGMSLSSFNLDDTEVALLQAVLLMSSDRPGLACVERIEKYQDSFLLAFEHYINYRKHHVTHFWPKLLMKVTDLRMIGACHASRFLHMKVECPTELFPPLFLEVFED

[3] = species on record: Homo sapiens; assay: Selectivity for human TR-alpha-1 to human TRbeta1
[4] = molecular target: T2, Thyroid hormone receptor beta; assay: Agonist activity at human TR-beta-1 expressed in CHO cells assessed as TRAF-beta-1-driven gene transactivation by alkaline phosphatase reporter gene assay; assay type: functional, cell-based
[5] = molecular target: T1, Thyroid hormone receptor alpha
Description: Agonist activity at human TR-alpha-1 expressed in CHO cells assessed as TRAF-alpha-1-driven gene transactivation by alkaline phosphatase reporter gene assay

[6] = molecular target: T1, Thyroid hormone receptor alpha; assay: Displacement of L-T3 from human TR-alpha-1 expressed in CHOK1 cells assessed as TRAF-alpha-1-driven gene transactivation by alkaline phosphatase reporter gene assay; assay type: cell-based, CHO-K1
[7] = molecular target: T3, Thyroid hormone receptor alpha (Homo sapiens) (UniProt P10827); assay: (§1) Antagonist activity at human TR-alpha-1 expressed in CHO cells assessed as TRAF-alpha-1-driven gene transactivation by alkaline phosphatase reporter gene assay; assay type: functional, cell-based; design: scale not given: the % may be the effect or the level left
T3 sequence (whole entry): T1 sequence (P10827 whole entry)

[8] = molecular target: T1, Thyroid hormone receptor alpha; assay: as §1; assay type: functional, cell-based
[9] = molecular target: T4, Androgen receptor (Homo sapiens, UniProt P10275); assay: Binding affinity at AR
T4 sequence (P10275 whole entry): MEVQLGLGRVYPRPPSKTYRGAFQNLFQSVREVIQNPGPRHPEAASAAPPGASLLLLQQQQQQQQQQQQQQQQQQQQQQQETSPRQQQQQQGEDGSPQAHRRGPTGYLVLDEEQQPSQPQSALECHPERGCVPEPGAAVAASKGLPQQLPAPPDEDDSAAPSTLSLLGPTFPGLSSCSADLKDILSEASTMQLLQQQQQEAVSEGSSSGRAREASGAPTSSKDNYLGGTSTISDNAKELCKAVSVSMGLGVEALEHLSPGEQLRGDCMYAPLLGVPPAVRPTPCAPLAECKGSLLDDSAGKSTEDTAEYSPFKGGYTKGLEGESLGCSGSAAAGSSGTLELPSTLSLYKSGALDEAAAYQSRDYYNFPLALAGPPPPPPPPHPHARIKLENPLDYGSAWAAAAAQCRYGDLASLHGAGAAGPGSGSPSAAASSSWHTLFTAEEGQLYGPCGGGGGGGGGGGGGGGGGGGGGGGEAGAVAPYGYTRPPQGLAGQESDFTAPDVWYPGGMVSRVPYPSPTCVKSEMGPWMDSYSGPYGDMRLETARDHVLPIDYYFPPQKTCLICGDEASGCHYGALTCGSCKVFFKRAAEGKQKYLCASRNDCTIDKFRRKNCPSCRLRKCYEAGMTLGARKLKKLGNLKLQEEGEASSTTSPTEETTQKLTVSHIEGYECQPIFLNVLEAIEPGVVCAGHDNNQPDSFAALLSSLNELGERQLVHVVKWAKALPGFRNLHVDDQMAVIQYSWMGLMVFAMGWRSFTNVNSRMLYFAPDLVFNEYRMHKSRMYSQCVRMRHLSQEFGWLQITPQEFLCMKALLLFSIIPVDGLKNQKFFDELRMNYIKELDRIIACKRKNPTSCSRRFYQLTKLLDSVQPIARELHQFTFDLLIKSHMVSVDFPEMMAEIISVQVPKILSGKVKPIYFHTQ

[10] = molecular target: T5, Estrogen receptor (Homo sapiens, UniProt P03372); assay: Binding affinity at ERalpha
T5 sequence (P03372 whole entry): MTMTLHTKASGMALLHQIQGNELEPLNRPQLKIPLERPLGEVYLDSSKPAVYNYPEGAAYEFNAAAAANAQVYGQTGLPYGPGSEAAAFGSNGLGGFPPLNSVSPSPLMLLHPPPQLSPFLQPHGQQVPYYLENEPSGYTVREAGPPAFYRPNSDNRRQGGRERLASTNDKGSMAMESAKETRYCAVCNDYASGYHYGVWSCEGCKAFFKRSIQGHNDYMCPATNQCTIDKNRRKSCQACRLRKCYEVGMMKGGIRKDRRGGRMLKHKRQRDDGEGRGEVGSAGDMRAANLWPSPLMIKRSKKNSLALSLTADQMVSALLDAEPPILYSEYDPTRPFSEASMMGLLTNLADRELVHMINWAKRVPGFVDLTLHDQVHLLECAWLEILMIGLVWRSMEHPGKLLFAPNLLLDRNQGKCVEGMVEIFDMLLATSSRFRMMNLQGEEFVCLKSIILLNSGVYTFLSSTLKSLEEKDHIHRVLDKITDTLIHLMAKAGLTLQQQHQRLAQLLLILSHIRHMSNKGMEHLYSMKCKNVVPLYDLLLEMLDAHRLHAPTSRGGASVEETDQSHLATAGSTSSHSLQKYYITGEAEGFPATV

[11] = molecular target: T6, Glucocorticoid receptor (Homo sapiens, UniProt P04150); assay: Binding affinity at GR
T6 sequence (P04150 whole entry): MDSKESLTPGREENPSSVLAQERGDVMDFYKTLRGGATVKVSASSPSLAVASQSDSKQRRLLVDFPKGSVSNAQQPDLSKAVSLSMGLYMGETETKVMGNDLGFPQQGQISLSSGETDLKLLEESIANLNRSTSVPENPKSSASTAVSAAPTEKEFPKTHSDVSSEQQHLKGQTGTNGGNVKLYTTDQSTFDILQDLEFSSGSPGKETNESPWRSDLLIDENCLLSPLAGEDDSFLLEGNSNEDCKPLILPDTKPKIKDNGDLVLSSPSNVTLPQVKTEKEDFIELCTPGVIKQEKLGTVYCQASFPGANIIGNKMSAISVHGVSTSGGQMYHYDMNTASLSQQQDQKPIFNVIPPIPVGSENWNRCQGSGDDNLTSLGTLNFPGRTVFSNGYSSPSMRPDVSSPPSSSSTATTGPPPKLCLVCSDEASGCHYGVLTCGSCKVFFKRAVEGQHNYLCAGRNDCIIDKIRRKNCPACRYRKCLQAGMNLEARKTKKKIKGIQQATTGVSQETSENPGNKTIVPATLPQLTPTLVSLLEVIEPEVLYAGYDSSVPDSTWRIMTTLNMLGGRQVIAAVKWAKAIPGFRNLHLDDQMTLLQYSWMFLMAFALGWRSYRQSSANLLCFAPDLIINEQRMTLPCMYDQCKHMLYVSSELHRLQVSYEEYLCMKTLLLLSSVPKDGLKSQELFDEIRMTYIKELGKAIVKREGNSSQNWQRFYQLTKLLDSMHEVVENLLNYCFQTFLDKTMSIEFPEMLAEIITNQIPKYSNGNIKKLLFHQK

[12] = molecular target: T7, Progesterone receptor (Homo sapiens, UniProt P06401); assay: Binding affinity at PR
T7 sequence (P06401 whole entry): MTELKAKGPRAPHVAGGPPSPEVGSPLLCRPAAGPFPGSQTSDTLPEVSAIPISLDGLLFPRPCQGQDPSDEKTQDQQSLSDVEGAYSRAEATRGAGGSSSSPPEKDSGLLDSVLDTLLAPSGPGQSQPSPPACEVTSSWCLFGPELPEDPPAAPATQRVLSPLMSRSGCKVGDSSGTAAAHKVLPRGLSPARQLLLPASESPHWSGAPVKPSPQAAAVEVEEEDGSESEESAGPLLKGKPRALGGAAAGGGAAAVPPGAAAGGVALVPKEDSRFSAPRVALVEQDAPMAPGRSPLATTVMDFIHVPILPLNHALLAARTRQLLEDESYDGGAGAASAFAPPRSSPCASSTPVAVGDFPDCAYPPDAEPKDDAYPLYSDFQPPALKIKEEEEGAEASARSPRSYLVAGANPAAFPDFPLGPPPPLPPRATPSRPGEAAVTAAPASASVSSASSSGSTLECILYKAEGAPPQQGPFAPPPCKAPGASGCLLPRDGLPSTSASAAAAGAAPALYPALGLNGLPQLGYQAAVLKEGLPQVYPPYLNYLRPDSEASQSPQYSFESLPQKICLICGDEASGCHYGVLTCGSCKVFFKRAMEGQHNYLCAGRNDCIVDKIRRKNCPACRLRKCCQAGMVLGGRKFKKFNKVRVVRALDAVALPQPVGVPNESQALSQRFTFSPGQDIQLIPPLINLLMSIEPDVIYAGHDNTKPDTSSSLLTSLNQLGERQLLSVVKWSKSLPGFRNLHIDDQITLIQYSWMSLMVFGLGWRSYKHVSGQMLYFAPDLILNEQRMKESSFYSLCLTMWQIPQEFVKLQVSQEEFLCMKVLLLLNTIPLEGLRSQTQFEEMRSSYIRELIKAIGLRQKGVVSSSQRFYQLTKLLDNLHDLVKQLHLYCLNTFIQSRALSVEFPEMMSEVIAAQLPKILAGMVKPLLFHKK

[13] = molecular target: T8, Mineralocorticoid receptor (Homo sapiens, UniProt P08235); assay: Binding affinity at MR
T8 sequence (P08235 whole entry): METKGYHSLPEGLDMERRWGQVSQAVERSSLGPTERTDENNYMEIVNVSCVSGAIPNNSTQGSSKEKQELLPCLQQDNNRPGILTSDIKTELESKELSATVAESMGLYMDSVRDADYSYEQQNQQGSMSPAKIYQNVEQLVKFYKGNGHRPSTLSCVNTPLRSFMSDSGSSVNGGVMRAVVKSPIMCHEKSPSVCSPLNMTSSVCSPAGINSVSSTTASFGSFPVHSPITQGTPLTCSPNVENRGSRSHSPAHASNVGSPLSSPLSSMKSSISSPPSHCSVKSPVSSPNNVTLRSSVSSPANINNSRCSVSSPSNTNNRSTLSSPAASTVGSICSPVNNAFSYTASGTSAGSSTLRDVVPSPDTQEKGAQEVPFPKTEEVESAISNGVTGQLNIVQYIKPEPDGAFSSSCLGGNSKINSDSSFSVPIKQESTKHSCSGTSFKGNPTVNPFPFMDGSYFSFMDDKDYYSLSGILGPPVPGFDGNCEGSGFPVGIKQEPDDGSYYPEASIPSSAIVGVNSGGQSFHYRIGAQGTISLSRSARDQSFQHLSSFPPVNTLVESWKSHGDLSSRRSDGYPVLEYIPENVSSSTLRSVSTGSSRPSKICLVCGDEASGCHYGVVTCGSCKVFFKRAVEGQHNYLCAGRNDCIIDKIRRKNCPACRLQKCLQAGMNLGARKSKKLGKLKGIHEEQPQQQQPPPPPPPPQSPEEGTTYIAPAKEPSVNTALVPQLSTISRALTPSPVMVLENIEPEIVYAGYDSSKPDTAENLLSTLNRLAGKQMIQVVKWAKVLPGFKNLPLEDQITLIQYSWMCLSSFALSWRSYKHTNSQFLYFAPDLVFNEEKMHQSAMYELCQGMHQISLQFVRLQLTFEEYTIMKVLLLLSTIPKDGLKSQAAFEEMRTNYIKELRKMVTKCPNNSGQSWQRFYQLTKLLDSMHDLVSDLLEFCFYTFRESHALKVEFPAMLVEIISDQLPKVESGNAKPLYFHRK

[14] = molecular target: T2, Thyroid hormone receptor beta
Description: Antagonist activity at human TR-beta-1 expressed in CHO cells assessed as TRAF-beta-1-driven gene transactivation by alkaline phosphatase reporter gene assay

SMILES | IC50 [1] [nM] | IC50 [2] [nM] | Ratio IC50 [3] | other results
Cc1ccccc1COc1c(Br)cc(CCC(=O)O)cc1Br | 1300 | 200 | 3.8 | –
CCNc1cccc(COc2c(Br)cc(CCC(=O)O)cc2Br)c1 | 78 | 23 | 3.4 | EC50 [4]: 49 nM; EC50 [5]: 23 nM
O=C(O)CCc1cc(Br)c(OCc2ccccc2)c(Br)c1 | 680 | 230 | 1.7 | –
O=C(O)CCc1cc(Br)c(OCc2cccc(Cl)c2)c(Br)c1 | 500 | 190 | 1.5 | –
O=C(O)CCc1cc(Br)c(OCc2cccc(C(F)(F)F)c2)c(Br)c1 | 370 | 160 | 1.4 | –
Cc1ccc(COc2c(Br)cc(CCC(=O)O)cc2Br)cc1 | 600 | 360 | 0.98 | –
CCN(CC)c1cccc(COc2c(Br)cc(CCC(=O)O)cc2Br)c1 | 480 | 87 | 3.2 | –
Nc1cccc(COc2c(Br)cc(CCC(=O)O)cc2Br)c1 | 2600 | 820 | 4.5 | –
O=C(O)CCc1cc(Br)c(OCc2cccc(Br)c2)c(Br)c1 | 99 | 60 | 0.97 | IC50 [6]: 90 nM; Activity [7]: 80%; IC50 [8]: 380 nM; IC50 [9]: 7700 nM; IC50 [10]: 29000 nM; IC50 [11]: 14000 nM; IC50 [12]: 2500 nM; IC50 [13]: 8700 nM; IC50 [14]: 230 nM
Cc1cccc(COc2c(Br)cc(CCC(=O)O)cc2Br)c1 | 360 | 120 | 1.8 | –
